Measured values reported in patent US11503826B2, “Low volatility auxin herbicide formulations” (priority 2009, dated 2022).
Where a name gives a salt, the structure may show the parent alone.

Experiments:
[1] = Aqueous solubility of dicamba acid and dicamba salts; conditions: for aqueous solubility wt % a.i. @20° C.: dicamba salts; for Comments (crystal formation) / solubility 0° C. a.e. / solubility 0° C. a.i. / solubility 20° C. a.e. / solubility 20° C. a.i.: Table 10a; for Comments (crystal formation): dicamba salt solutions; for solubility 0° C. a.e. / solubility 0° C. a.i. / solubility 20° C. a.e. / solubility 20° C. a.i.: dicamba salt; for solubility 0° C. a.e. / solubility 0° C. a.i.: equilibrated 5 to 7 days at 0° C.; for solubility 0° C. a.e. / solubility 20° C. a.e.: acid equivalent; for solubility 0° C. a.i. / solubility 20° C. a.i.: active ingredient; for solubility 20° C. a.e. / solubility 20° C. a.i.: equilibrated 5 to 7 days at 20° C.; for solubility 20° C. a.e.: 0.45 micron filter, HPLC
Source text: The solution was then passed through a 0.45 micron filter and assayed by HPLC for soluble dicamba.

[2] = Distillation volatility: dicamba in distillate by HPLC/MS; assay type: physicochemical; conditions: for ppm Dicamba in distillate: Table 4h summary, 5% a.e. salt solution
Procedure: The pH was measured on a standard Orion Model 320 pH meter of each neat solution.
Simple distillation using a short path still was used to collect the water distillate containing the dicamba in the vapor phase of the salt solutions. A 50 mL distillation flask was used. The distillation receiver was a “cow” type with four 2 mL graduated sections. The solutions were heated at the 30% setting of the GlassCol heating unit and the boiling point of each distillation was noted. The first 2 ml of distillate was collected, and the receiver rotated to avoid collection of any further distillate in that section as the distillation flask cooled. The 2 mL sample was quantitatively transferred by pipette to HPLC vials for later analysis. Between each distillation the distillation apparatus was washed with 10 volumes of tap water, 10 volumes of distilled water, rinsed with acetone, and dried in a 60° C. oven. Each distillation was run in triplicate.
The distillate was collected and analyzed for dicamba concentration using HPLC/Mass Spectroscopy (MS). The HPLC column was an Agilent Zorbax Eclipse XDB-C8, 4.6×150 mm, 5u, PN 993967-90. Mobile phase A was 0.1% formic acid in D.I. water. Mobile phase B was 0.1% formic acid in acetonitrile. A flow rate of 1.2 mL/min was used and an injection volume of 5, 10, 15 or 25 ul was used depending on the dicamba level in the sample. The following gradient was used: […]
The MS parameters were as follows: Type SIR; ES-ion mode; 0.05 second inter channel delay; 0.05 second interscan time; 0.5 span (Da); 10 minutes elapsed time; and 6-6000 ppb calibration range. […] Channel 2 mass was 177 (Da); Dwell was 0.25(s); Cone(V)=tune and; 0.05(s) delay.

COc1c(Cl)ccc(Cl)c1C(=O)O.NCCOCCO [Dicamba DGA salt, reference compound]
aqueous solubility Approximate g a.e./L @20° C. [1]: 700 g a.e./L | aqueous solubility wt % a.e. @20° C. [1]: 56.5 wt % a.e. | aqueous solubility wt % a.e. @20° C. ([1]; Table 10b, second experiment, dicamba acid and salts): 56.5 wt % a.e. | aqueous solubility wt % a.i. @20° C. ([1]; Table 10b, second experiment): 83.4 wt % a.i. | crystal formation from concentrated salt solution ([1]; solubility experiment, Example 10): several weeks

NCCCCCCN [HMDA]
Comments (crystal formation) [1]: Pasty solid | solubility 0° C. a.e. [1]: 11.2 wt % | solubility 0° C. a.i. [1]: 14.1 wt % | solubility 20° C. a.e. [1]: 14.1 wt % | solubility 20° C. a.i. [1]: 17.8 wt %

CNC [DMA]
Mean Dicamba in Distillate ([2]; 1% a.e. dicamba, solution pH 3.25): 4.50 ppm | Mean Dicamba in Distillate ([2]; 1% a.e. dicamba, solution pH 4.36): 0.57 ppm | Mean Dicamba in Distillate ([2]; 1% a.e. dicamba, solution pH 6.11): 0.30 ppm | Mean Dicamba in Distillate ([2]; 1% a.e. dicamba, solution pH 8.53): 0.73 ppm | Mean Dicamba in Distillate ([2]; 1% a.e. dicamba, solution pH 10.12): 1.32 ppm | Mean Dicamba in Distillate ([2]; 2% a.e. dicamba, solution pH 3.20): 9.19 ppm | Mean Dicamba in Distillate ([2]; 2% a.e. dicamba, solution pH 4.25): 1.08 ppm | Mean Dicamba in Distillate ([2]; 2% a.e. dicamba, solution pH 5.97): 0.83 ppm | Mean Dicamba in Distillate ([2]; 2% a.e. dicamba, solution pH 8.66): 1.98 ppm | Mean Dicamba in Distillate ([2]; 2% a.e. dicamba, solution pH 10.24): 4.88 ppm | Mean Dicamba in Distillate ([2]; 5% a.e. dicamba, solution pH 3.18): 20.10 ppm | Mean Dicamba in Distillate ([2]; 5% a.e. dicamba, solution pH 4.22): 2.67 ppm | Mean Dicamba in Distillate ([2]; 5% a.e. dicamba, solution pH 5.58): 2.06 ppm | Mean Dicamba in Distillate ([2]; 5% a.e. dicamba, solution pH 8.69): 8.43 ppm | Mean Dicamba in Distillate ([2]; 5% a.e. dicamba, solution pH 10.17): 12.34 ppm | ppm Dicamba in distillate ([2]; pH 5.58): 2.1 ppm | ppm Dicamba in distillate ([2]; pH 8.69): 8.4 ppm

CC(C)N [IPA]
Mean Dicamba in Distillate ([2]; 1% a.e. dicamba, solution pH 3.41): 1.42 ppm | Mean Dicamba in Distillate ([2]; 1% a.e. dicamba, solution pH 4.40): 0.42 ppm | Mean Dicamba in Distillate ([2]; 1% a.e. dicamba, solution pH 5.13): 0.37 ppm | Mean Dicamba in Distillate ([2]; 1% a.e. dicamba, solution pH 8.10): 0.72 ppm | Mean Dicamba in Distillate ([2]; 1% a.e. dicamba, solution pH 9.13): 1.22 ppm | Mean Dicamba in Distillate ([2]; 2% a.e. dicamba, solution pH 3.37): 3.65 ppm | Mean Dicamba in Distillate ([2]; 2% a.e. dicamba, solution pH 4.36): 1.42 ppm | Mean Dicamba in Distillate ([2]; 2% a.e. dicamba, solution pH 5.10): 0.94 ppm | Mean Dicamba in Distillate ([2]; 2% a.e. dicamba, solution pH 8.13): 0.75 ppm | Mean Dicamba in Distillate ([2]; 2% a.e. dicamba, solution pH 9.20): 3.43 ppm | Mean Dicamba in Distillate ([2]; 5% a.e. dicamba, solution pH 3.44): 5.85 ppm | Mean Dicamba in Distillate ([2]; 5% a.e. dicamba, solution pH 4.33): 3.14 ppm | Mean Dicamba in Distillate ([2]; 5% a.e. dicamba, solution pH 4.94): 3.77 ppm | Mean Dicamba in Distillate ([2]; 5% a.e. dicamba, solution pH 8.24): 2.47 ppm | Mean Dicamba in Distillate ([2]; 5% a.e. dicamba, solution pH 9.28): 12.57 ppm | ppm Dicamba in distillate ([2]; pH 8.24): 2.5 ppm

COc1c(Cl)ccc(Cl)c1C(=O)O [Dicamba potassium salt]
ppm Dicamba in distillate ([2]; pH 7.06): 0.6 ppm | aqueous solubility Approximate g a.e./L @20° C. ([1]; listed as potassium dicamba): 720 g a.e./L | aqueous solubility wt % a.e. @20° C. ([1]; listed as potassium dicamba): 54.6 wt % a.e. | Comments (crystal formation) ([1]; listed as K): Crystals form on | solubility 0° C. a.e. ([1]; listed as K): 52.7 wt % | solubility 0° C. a.i. ([1]; listed as K): 61.8 wt % | solubility 20° C. a.e. ([1]; listed as K): 54.6 wt % | solubility 20° C. a.i. ([1]; listed as K): 64 wt % | aqueous solubility wt % a.e. @20° C. ([1]; Table 10b, second experiment, dicamba acid and salts, listed as potassium salt): 54.6 wt % a.e. | aqueous solubility wt % a.i. @20° C. ([1]; Table 10b, second experiment, listed as potassium salt): 64 wt % a.i.
